Data reported in patent publication US12252524B2, “GIP/GLP1 co-agonist compounds” (Eli Lilly and Company, priority 2018, dated 2025).
Numbered stars: 1 amine (or outer) side, 2 acyl side, 3 side chain; on linkers, the order of the positions; unused ones are H or OH. Square brackets hold non-standard residues; d marks the D form. Side chains are listed from the residue outwards. Peptide text beside a SMILES is read from it. * marks the point of attachment. C20 diacid = O=C(O)CCCCCCCCCCCCCCCCCCC(=O)*; C18 diacid = O=C(O)CCCCCCCCCCCCCCCCC(=O)*; αMePhe(2-F) = C[C@](N)(Cc1ccccc1F)C(=O)O; γGlu = O=C(O)[C@H](CCC(=O)[*:2])N[*:1]; αMeL = CC(C)C[C@](C)(N)C(=O)O; AEEA = NCCOCCOCC(=O)O; Aib = CC(C)(N)C(=O)O

Key:
[1] = molecular target: T1, gastric inhibitory peptide receptor (GIPR) (Homo sapiens, UniProt P48546); test: cAMP pharmacological functional assay in presence of casein, hGIPR; assay type: cell-based; settings: HEK293 cells expressing hGIPR, 0.1% Casein, geometric mean; read-out: hGIPR cAMP Rel EC50 nM (SEM, n)
T1 sequence (P48546 22-466): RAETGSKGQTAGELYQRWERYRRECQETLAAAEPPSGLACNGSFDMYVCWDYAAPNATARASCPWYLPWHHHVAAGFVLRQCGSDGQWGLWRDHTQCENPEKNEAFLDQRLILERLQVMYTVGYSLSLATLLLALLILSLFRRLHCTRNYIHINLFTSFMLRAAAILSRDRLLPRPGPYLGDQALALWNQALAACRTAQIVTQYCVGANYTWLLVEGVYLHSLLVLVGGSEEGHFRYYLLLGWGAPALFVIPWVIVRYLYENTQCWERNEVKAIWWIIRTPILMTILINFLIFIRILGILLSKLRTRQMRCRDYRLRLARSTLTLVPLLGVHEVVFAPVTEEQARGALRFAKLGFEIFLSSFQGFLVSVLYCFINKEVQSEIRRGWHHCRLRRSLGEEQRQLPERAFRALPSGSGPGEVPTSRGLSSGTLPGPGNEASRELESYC

[2] = molecular target: human GLP-1 receptor (GLP-1R) (Homo sapiens, UniProt P43220); test: cAMP pharmacological functional assay in presence of casein, hGLP-1R; assay type: cell-based; settings: HEK293 cells expressing hGLP-1R, 0.1% Casein, geometric mean; read-out: hGLP1R cAMP Rel EC50 nM (SEM, n)
Sequence of human GLP-1 receptor (GLP-1R) (P43220 24-463): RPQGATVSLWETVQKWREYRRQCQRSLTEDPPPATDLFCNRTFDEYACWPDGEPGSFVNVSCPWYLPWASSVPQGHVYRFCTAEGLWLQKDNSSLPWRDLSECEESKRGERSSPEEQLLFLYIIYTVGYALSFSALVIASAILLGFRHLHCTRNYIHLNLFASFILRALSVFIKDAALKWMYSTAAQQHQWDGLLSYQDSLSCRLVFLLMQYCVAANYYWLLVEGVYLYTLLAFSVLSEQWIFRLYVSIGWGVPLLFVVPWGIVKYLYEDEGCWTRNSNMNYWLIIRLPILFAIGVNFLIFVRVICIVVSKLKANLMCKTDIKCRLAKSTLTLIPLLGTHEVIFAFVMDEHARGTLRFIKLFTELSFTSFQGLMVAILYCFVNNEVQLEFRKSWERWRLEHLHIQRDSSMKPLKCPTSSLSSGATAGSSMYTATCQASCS

CC[C@H](C)[C@H](NC(=O)[C@H](CCCCN)NC(=O)[C@H](CC(=O)O)NC(=O)[C@H](CC(C)C)NC(=O)[C@H](CC(C)C)NC(=O)[C@@H](NC(=O)[C@H](CO)NC(=O)[C@H](Cc1ccc(O)cc1)NC(=O)[C@H](CC(=O)O)NC(=O)[C@H](CO)NC(=O)[C@@H](NC(=O)[C@H](Cc1ccccc1)NC(=O)[C@@H](NC(=O)CNC(=O)[C@H](CCC(=O)O)NC(=O)C(C)(C)NC(=O)[C@@H](N)Cc1ccc(O)cc1)[C@@H](C)O)[C@@H](C)O)[C@@H](C)CC)C(=O)N[C@@H](C)C(=O)N[C@@H](CCC(N)=O)C(=O)NC(C)(C)C(=O)N[C@@H](C)C(=O)N[C@@H](Cc1ccccc1)C(=O)N[C@H](C(=O)N[C@@H](CCC(=O)O)C(=O)N[C@@H](Cc1ccc(O)cc1)C(=O)N[C@@H](CC(C)C)C(=O)N[C@H](C(=O)N[C@@H](CCC(=O)O)C(=O)NCC(=O)NCC(=O)N1CCC[C@H]1C(=O)N[C@@H](CO)C(=O)N[C@@H](CO)C(=O)NCC(=O)N[C@@H](C)C(=O)N1CCC[C@H]1C(=O)N1CCC[C@H]1C(=O)N[C@@H](CCCCNC(=O)COCCOCCNC(=O)COCCOCCNC(=O)CC[C@H](NC(=O)CCCCCCCCCCCCCCCCCCC(=O)O)C(=O)O)C(=O)N[C@@H](CO)C(N)=O)[C@@H](C)CC)[C@@H](C)CC [Example 47] (H-Y[Aib]EGTFTSDYSILLDKIAQ[Aib]AFIEYLIEGGPSSGAPPK([AEEA-AEEA-γGlu-C20 diacid])S-NH2)
EC50 [1]: 0.287 nM
EC50 [2]: 0.702 nM

CC[C@H](C)[C@H](NC(=O)[C@H](CCCCN)NC(=O)[C@H](CC(=O)O)NC(=O)[C@H](CC(C)C)NC(=O)[C@H](CC(C)C)NC(=O)[C@@H](NC(=O)[C@H](CO)NC(=O)[C@H](CCCCNC(=O)COCCOCCNC(=O)COCCOCCNC(=O)CC[C@H](NC(=O)CCCCCCCCCCCCCCCCCCC(=O)O)C(=O)O)NC(=O)[C@H](CC(=O)O)NC(=O)[C@H](CO)NC(=O)[C@@H](NC(=O)[C@H](Cc1ccccc1)NC(=O)[C@@H](NC(=O)CNC(=O)[C@H](CCC(=O)O)NC(=O)C(C)(C)NC(=O)[C@@H](N)Cc1ccc(O)cc1)[C@@H](C)O)[C@@H](C)O)[C@@H](C)CC)C(=O)N[C@@H](C)C(=O)N[C@@H](CCC(N)=O)C(=O)NC(C)(C)C(=O)N[C@@H](C)C(=O)N[C@@H](Cc1ccccc1)C(=O)N[C@H](C(=O)N[C@@H](CCC(=O)O)C(=O)N[C@@H](Cc1ccc(O)cc1)C(=O)N[C@@H](CC(C)C)C(=O)N[C@H](C(=O)N[C@@H](CCC(=O)O)C(=O)NCC(=O)NCC(N)=O)[C@@H](C)CC)[C@@H](C)CC [Example 70] (H-Y[Aib]EGTFTSDK([AEEA-AEEA-γGlu-C20 diacid])SILLDKIAQ[Aib]AFIEYLIEGG-NH2; N-terminus assumed)
EC50 [1]: 0.48 nM
EC50 [2]: 0.283 nM

CC[C@H](C)[C@H](NC(=O)[C@H](CCCCN)NC(=O)[C@H](CC(=O)O)NC(=O)[C@H](CCCCNC(=O)COCCOCCNC(=O)COCCOCCNC(=O)CC[C@H](NC(=O)CCCCCCCCCCCCCCCCCCC(=O)O)C(=O)O)NC(=O)[C@H](CC(C)C)NC(=O)[C@@H](NC(=O)[C@H](CO)NC(=O)[C@H](Cc1ccc(O)cc1)NC(=O)[C@H](CC(=O)O)NC(=O)[C@H](CO)NC(=O)[C@@H](NC(=O)[C@H](Cc1ccccc1)NC(=O)[C@@H](NC(=O)CNC(=O)[C@H](CCC(=O)O)NC(=O)C(C)(C)NC(=O)[C@@H](N)Cc1ccc(O)cc1)[C@@H](C)O)[C@@H](C)O)[C@@H](C)CC)C(=O)N[C@@H](C)C(=O)N[C@@H](CCC(N)=O)C(=O)NC(C)(C)C(=O)N[C@@H](C)C(=O)N[C@@H](Cc1ccccc1)C(=O)N[C@H](C(=O)N[C@@H](CCC(=O)O)C(=O)N[C@@H](Cc1ccc(O)cc1)C(=O)N[C@@H](CC(C)C)C(=O)N[C@H](C(=O)N[C@@H](CCC(=O)O)C(=O)NCC(=O)NCC(N)=O)[C@@H](C)CC)[C@@H](C)CC [Example 71] (H-Y[Aib]EGTFTSDYSILK([AEEA-AEEA-γGlu-C20 diacid])DKIAQ[Aib]AFIEYLIEGG-NH2)
EC50 [1]: 0.166 nM
EC50 [2]: 1.02 nM

CC[C@H](C)[C@H](NC(=O)[C@H](CCCCN)NC(=O)[C@H](CC(=O)O)NC(=O)[C@H](CC(C)C)NC(=O)[C@H](CC(C)C)NC(=O)[C@@H](NC(=O)[C@H](CO)NC(=O)[C@H](Cc1ccc(O)cc1)NC(=O)[C@H](CC(=O)O)NC(=O)[C@H](CO)NC(=O)[C@@H](NC(=O)[C@H](Cc1ccccc1)NC(=O)[C@@H](NC(=O)CNC(=O)[C@H](CCC(=O)O)NC(=O)C(C)(C)NC(=O)[C@@H](N)Cc1ccc(O)cc1)[C@@H](C)O)[C@@H](C)O)[C@@H](C)CC)C(=O)N[C@@H](C)C(=O)N[C@@H](CCC(N)=O)C(=O)NC(C)(C)C(=O)N[C@@H](CCCCNC(=O)COCCOCCNC(=O)COCCOCCNC(=O)CC[C@H](NC(=O)CCCCCCCCCCCCCCCCCCC(=O)O)C(=O)O)C(=O)N[C@@H](Cc1ccccc1)C(=O)N[C@H](C(=O)N[C@@H](CCC(=O)O)C(=O)N[C@@H](Cc1ccc(O)cc1)C(=O)N[C@@H](CC(C)C)C(=O)N[C@H](C(=O)N[C@@H](CCC(=O)O)C(=O)NCC(=O)NCC(N)=O)[C@@H](C)CC)[C@@H](C)CC [Example 72] (H-Y[Aib]EGTFTSDYSILLDKIAQ[Aib]K([AEEA-AEEA-γGlu-C20 diacid])FIEYLIEGG-NH2)
EC50 [1]: 0.252 nM
EC50 [2]: 0.906 nM

CC[C@H](C)[C@H](NC(=O)[C@H](CCCCN)NC(=O)[C@H](CC(=O)O)NC(=O)[C@H](CC(C)C)NC(=O)[C@H](CC(C)C)NC(=O)[C@@H](NC(=O)[C@H](CO)NC(=O)[C@H](Cc1ccc(O)cc1)NC(=O)[C@H](CC(=O)O)NC(=O)[C@H](CO)NC(=O)[C@@H](NC(=O)[C@H](Cc1ccccc1)NC(=O)[C@@H](NC(=O)CNC(=O)[C@H](CCC(=O)O)NC(=O)C(C)(C)NC(=O)[C@@H](N)Cc1ccc(O)cc1)[C@@H](C)O)[C@@H](C)O)[C@@H](C)CC)C(=O)N[C@@H](C)C(=O)N[C@@H](CCC(N)=O)C(=O)NC(C)(C)C(=O)N[C@@H](C)C(=O)N[C@@H](Cc1ccccc1)C(=O)N[C@H](C(=O)N[C@@H](CCC(=O)O)C(=O)N[C@@H](Cc1ccc(O)cc1)C(=O)N[C@@H](CC(C)C)C(=O)N[C@H](C(=O)N[C@@H](CCCCNC(=O)COCCOCCNC(=O)COCCOCCNC(=O)CC[C@H](NC(=O)CCCCCCCCCCCCCCCCCCC(=O)O)C(=O)O)C(=O)NCC(=O)NCC(N)=O)[C@@H](C)CC)[C@@H](C)CC [Example 73] (H-Y[Aib]EGTFTSDYSILLDKIAQ[Aib]AFIEYLIK([AEEA-AEEA-γGlu-C20 diacid])GG-NH2)
EC50 [1]: 0.979 nM
EC50 [2]: 2.55 nM

CC[C@H](C)[C@H](NC(=O)[C@H](CC(C)C)NC(=O)[C@H](Cc1ccc(O)cc1)NC(=O)[C@@H](CCC(=O)O)NC(=O)[C@@H](NC(=O)[C@H](Cc1ccccc1)NC(=O)[C@H](Cc1c[nH]cn1)NC(=O)C(C)(C)NC(=O)[C@H](CCC(N)=O)NC(=O)[C@H](C)NC(=O)[C@H](CCCCNC(=O)COCCOCCNC(=O)COCCOCCNC(=O)CC[C@H](NC(=O)CCCCCCCCCCCCCCCCC(=O)O)C(=O)O)NC(=O)[C@H](CCC(=O)O)NC(=O)[C@H](CC(=O)O)NC(=O)[C@H](CC(C)C)NC(=O)[C@](C)(CC(C)C)NC(=O)[C@@H](NC(=O)[C@H](CO)NC(=O)[C@H](Cc1c[nH]cn1)NC(=O)[C@H](CC(=O)O)NC(=O)[C@H](CO)NC(=O)[C@@H](NC(=O)[C@](C)(Cc1ccccc1F)NC(=O)[C@@H](NC(=O)CNC(=O)[C@H](CCC(=O)O)NC(=O)C(C)(C)NC(=O)[C@@H](N)Cc1ccc(O)cc1)[C@@H](C)O)[C@@H](C)O)[C@@H](C)CC)[C@@H](C)CC)C(=O)N[C@@H](CCC(=O)O)C(=O)NCC(=O)NCC(N)=O [Example 180] (H-Y[Aib]EGT[αMePhe(2-F)]TSDHSI[αMeL]LDEK([AEEA-AEEA-γGlu-C18 diacid])AQ[Aib]HFI[dE]YLIEGG-NH2)
EC50 [2]: 2.16 nM

CC[C@H](C)[C@H](NC(=O)[C@H](CC(C)C)NC(=O)[C@H](Cc1ccc(O)cc1)NC(=O)[C@@H](CCC(=O)O)NC(=O)[C@@H](NC(=O)[C@H](Cc1ccccc1)NC(=O)[C@H](CCC(=O)O)NC(=O)C(C)(C)NC(=O)[C@H](CCC(N)=O)NC(=O)[C@H](C)NC(=O)[C@H](CCCCNC(=O)COCCOCCNC(=O)COCCOCCNC(=O)CC[C@H](NC(=O)CCCCCCCCCCCCCCCCCCC(=O)O)C(=O)O)NC(=O)[C@H](CCC(=O)O)NC(=O)[C@H](CC(=O)O)NC(=O)[C@H](CC(C)C)NC(=O)[C@](C)(CC(C)C)NC(=O)[C@@H](NC(=O)[C@H](CO)NC(=O)[C@@H](Cc1ccc(O)cc1)NC(=O)[C@H](CC(=O)O)NC(=O)[C@H](CO)NC(=O)[C@@H](NC(=O)[C@](C)(Cc1ccccc1F)NC(=O)[C@@H](NC(=O)CNC(=O)[C@H](CCC(=O)O)NC(=O)C(C)(C)NC(=O)[C@@H](N)Cc1ccc(O)cc1)[C@@H](C)O)[C@@H](C)O)[C@@H](C)CC)[C@@H](C)CC)C(=O)N[C@@H](CCC(=O)O)C(=O)NCC(=O)NCC(=O)N1CCC[C@H]1C(=O)N[C@@H](CO)C(=O)N[C@@H](CO)C(=O)NCC(=O)N[C@@H](C)C(=O)N1CCC[C@H]1C(=O)N1CCC[C@H]1C(=O)N1CCC[C@H]1C(=O)N[C@@H](CO)C(N)=O [Example 184] (H-Y[Aib]EGT[αMePhe(2-F)]TSD[dY]SI[αMeL]LDEK([AEEA-AEEA-γGlu-C20 diacid])AQ[Aib]EFI[dE]YLIEGGPSSGAPPPS-NH2)
EC50 [1]: 0.0477 nM
